A short description of data set [1]: Ethylene-octene copolymerization in parallel pressure reactor, non-metallocene catalyst CAT-1. The settings on record: catalyst CAT-1 20 nmol; activator 1.1 equiv; 100° C.; 135 psi; 1-octene 100 uL; TNOAL 0.5 umol. As to the method:
(§1) Solutions of the metal complexes and activators were prepared in a drybox using toluene or methylcyclohexane. Concentrations were typically 0.2 mmol/L. Tri-n-octylaluminum (TNOAL, neat, AkzoNobel) was typically used as a scavenger. Concentration of the TNOAL solution in toluene ranged from 0.5 to 2.0 mmol/L.
(§2) Polymerizations were carried out in a parallel pressure reactor, as generally described in U.S. Pat. Nos. 6,306,658; 6,455,316; 6,489,168; WO 00/09255; and Murphy, V. et al. (2003) “A Fully Integrated High-Throughput Screening Methodology for the Discovery of New Polyolefin Catalysts: Discovery of a New Class of High Temperature Single-Site Group (IV) Copolymerization Catalysts,” J. Am. Chem. Soc., v. 125, pp. 4306-4317, each of which is fully incorporated herein by reference. […] Although the specific quantities, temperatures, solvents, reactants, reactant ratios, pressures, and other variables are frequently changed from one polymerization run to the next, the following describes a typical polymerization performed in a parallel pressure reactor.
(§3) Ethylene-Octene Copolymerization (EO).
(§4) A pre-weighed glass vial insert and disposable stirring paddle were fitted to each reaction vessel of the reactor, which contains 48 individual reaction vessels. The reactor was then closed and purged with ethylene. Each vessel was charged with enough solvent (typically isohexane) to bring the total reaction volume, including the subsequent additions, to the desired volume, typically 5 mL. 1-octene, if required, was injected into the reaction vessel and the reactor was heated to the set temperature and pressurized to the predetermined pressure of ethylene, while stirring at 800 rpm. The aluminum compound (such as tri-n-octylaluminum) in toluene was then injected as scavenger followed by addition of the activator solution (typically 1.0-1.2 molar equivalents).
(§5) The catalyst (and activator solutions for Run A) were all prepared in toluene. The catalyst solution (typically 0.020-0.080 μmol of metal complex) was injected into the reaction vessel and the polymerization was allowed to proceed until a pre-determined amount of ethylene (quench value typically 20 psi) had been used up by the reaction. Alternatively, the reaction may be allowed to proceed for a set amount of time (maximum reaction time typically 30 minutes). Ethylene was added continuously (through the use of computer controlled solenoid valves) to the autoclaves during polymerization to maintain reactor gauge pressure (P setpt, +/−2 psig) and the reactor temperature (T) was monitored and typically maintained within +/−1° C. The reaction was quenched by pressurizing the vessel with compressed air. After the reactor was vented and cooled, the glass vial insert containing the polymer product and solvent was removed from the pressure cell and the inert atmosphere glove box, and the volatile components were removed using a Genevac HT-12 centrifuge and Genevac VC3000D vacuum evaporator operating at elevated temperature and reduced pressure. The vial was then weighed to determine the yield of the polymer product. The resultant polymer was analyzed by Rapid GPC (see below) to determine the molecular weight, by FT-IR (see below) to determine percent octene incorporation, and by DSC (see below) to determine melting point (Tm).
(§6) Equivalence is determined based on the mole equivalents relative to the moles of the transition metal in the catalyst complex.
(§7) Activators of the present disclosure can also be used for activating non-metallocene catalysts for polymerization of olefins. Table 4 illustrates copolymerization of ethylene and octene using activators of the present disclosure and non-metallocene catalysts (CAT-1, CAT-2, CAT-3, and CAT-4).

Data set [2] in a line: Ethylene-octene copolymerization in parallel pressure reactor, non-metallocene catalyst CAT-3. The conditions noted are these: catalyst CAT-3 20 nmol; activator 1.1 equiv; 100° C.; 135 psi; 1-octene 100 uL; TNOAL 0.5 umol. On the procedure:
as §1, §2, §3, §4, §5, §6, §7

The nature of data set [3]: Propylene homopolymerization in parallel pressure reactor, MCN-1 with ammonium borate activators. The conditions noted are these: for activity: isohexane.
Source text: Polymerization in Parallel Pressure Reactor
Solvents, polymerization-grade toluene, and isohexane were supplied by ExxonMobil Chemical Company and purified by passing through a series of columns: two 500 cc Oxyclear cylinders in series from Labclear (Oakland, Calif.), followed by two 500 cc columns in series packed with dried 3 Å mole sieves (8-12 mesh; Aldrich Chemical Company), and two 500 cc columns in series packed with dried 5 Å mole sieves (8-12 mesh; Aldrich Chemical Company). 1-octene (C8) and 1-hexene (C6) (98%, Aldrich Chemical Company) were dried by stirring over NaK overnight followed by filtration through basic alumina (Aldrich Chemical Company, Brockman Basic 1).
as §1, §2
Catalyst systems dissolved in solution were used in the polymerization examples below, unless specified otherwise.
RUN A: Propylene Homopolymerization (PP).
The reactor was prepared as described above and purged with propylene. For the examples in Table 2, the catalyst and activator solutions were prepared in toluene. […] Isohexane was then injected into each vessel at room temperature followed by a predetermined amount of propylene gas. The reactor was heated to the set temperature while stirring at 800 rpm, and the scavenger, activator and catalyst solutions were injected sequentially to each vessel. The polymerization was allowed to proceed as described previously.
A series of propylene polymerizations were performed in parallel pressure reactors (PPRs) developed by Symyx Technologies, Inc. In these polymerizations, the metallocene rac-dimethylsilyl-bis(indenyl)hafnium dimethyl (MCN-1) was used along with several different ammonium borate activators. Polymerizations were performed at 85° C. and 100° C.
Propylene homopolymerization (PP).
A series of propylene polymerizations were performed in the parallel pressure reactor similar to the procedure described above. In these studies rac-dimethylsilyl-bis(indenyl)hafnium dimethyl (MCN-1) was used along with ammonium borate activators.

Data set [4] in a line: Ethylene-octene copolymerization in parallel pressure reactor, non-metallocene catalyst CAT-4. The settings on record: catalyst CAT-4 20 nmol; activator 1.1 equiv; 100° C.; 135 psi; 1-octene 100 uL; TNOAL 0.5 umol. As to the method:
as §1, §2, §3, §4, §5, §6, §7

The nature of data set [5]: Ethylene-octene copolymerization in parallel pressure reactor, non-metallocene catalyst CAT-2. The conditions noted are these: catalyst CAT-2 20 nmol; activator 1.1 equiv; 100° C.; 135 psi; 1-octene 100 uL; TNOAL 0.5 umol. On the procedure: as §1, §2, §3, §4, §5, §6, §7
The nature of data set [6]: Ethylene-octene copolymerization (EO) in parallel pressure reactor, MCN-1 (Table 6). The conditions noted are these: MCN-1 = 20 nmol, activator = 22 nmol, 1-octene 100 μL, 80° C., 75 PSI. As to the method: as §3, §4, §5
A series of ethylene-octene polymerizations were performed in the parallel pressure reactor according to a similar procedure as described above. In these studies rac-dimethylsilyl-bis(indenyl)hafnium dimethyl (MCN-1) was used along with ammonium borate activators.

Data set [7] is described as follows: Ethylene homopolymerization (PE) in parallel pressure reactor, MCN-1. The conditions noted are these: MCN-1 = 20 nmol, activator = 22 nmol, 80° C., 75 PSI. On the procedure: Ethylene homopolymerization (PE).
A series of ethylene polymerizations were performed in the parallel pressure reactor sinilar to the procedure described above. In these studies rac-dimethylsilyl- bis(indenyl)hafnium dimethyl (MCN-1) was used along with ammonium borate activators .

Data set [8] can be described thus: Solubility studies of the activators (saturated solution in isohexane or methylcyclohexane). The data set is classed as physicochemical. The conditions noted are these: methylcyclohexane.
Assay in data set [9]: as above
The data set is classed as physicochemical. As to the method:
Solubility Studies of the Activators
Procedure for Solid Activators.
A saturated solution of each of the solid ammonium borate activators was prepared by stirring an excess of the activator with either isohexane or methylcyclohexane solvent for several hours at 25° C. The mixture was then filtered and a known volume of the filtrate was evaporated to dryness in a tared vial. The vial was then weighed to determine the mass of activator that was dissolved in the aliquot. The concentration of the saturated solution is presented in millimoles of activator per liter of solution (mM).
Procedure for Activators that Form Emulsions.
A saturated solution of the activator was prepared by slowly adding the solvent to a pre-weighed amount of the activator. The final volume was determined as the minimum amount of solvent required to convert the emulsion into a homogeneous solution. The concentration of the saturated solution is presented in millimoles of activator per liter of solution (mM). Alternatively, an emulsion of the activator was prepared by adding the solvent to an excess amount of activator. The resulting emulsion was separated from the undissolved solids by decanting the emulsion into a tared vial. Solvent was then added dropwise until the emulsion became homogeneous. The mass of the final solution was measured and then the solvent was evaporated to dryness to obtain the mass of the activator. The concentration of the saturated solution is presented in millimoles of activator per liter of solution (mM).

[10] abbreviates: propylene, 100 °C, 150 psi, MCN-1 = 20 nmol, activator = 20 nmol, TNOAL 500 nmol.

Values joined by “and” are separate entries in the source; they are usually repeats but may differ in a detail not shown here. Equal values may be shown once.

With “Di(hydrogenated tallow)methylamine-BF20 [M2HTH-BF20]”, the “activity” value in [1] was 2030 kg/mmol/h and 2214 kg/mmol/h; in [2], 711 kg/mmol/h and 786 kg/mmol/h; in [3] (setting [10]), 46 kg/mmol/h and 30 kg/mmol/h and 36 kg/mmol/h; in data set [4], 51 kg/mmol/h and 63 kg/mmol/h; in data set [5] it was 806 kg/mmol/h and 755 kg/mmol/h.
“N-methyl-4-nonadecyl-N-octadecylanilinium tetrakis(pentafluorophenyl)borate [NOMAH-BF20]”: the “activity” value was 430.9 kg/mmol/h and 414.1 kg/mmol/h and 478.7 kg/mmol/h and 409.6 kg/mmol/h in data set [6]; 215.4 kg/mmol/h and 237.5 kg/mmol/h and 399.2 kg/mmol/h and 340.1 kg/mmol/h in [7].
`CCCCCCCCCCCCCCCCCC[NH+](C)c1ccc(CCCCCCCCCCC)cc1.Fc1c(F)c(F)c2c(F)c([B-](c3c(F)c(F)c4c(F)c(F)c(F)c(F)c4c3F)(c3c(F)c(F)c4c(F)c(F)c(F)c(F)c4c3F)c3c(F)c(F)c4c(F)c(F)c(F)c(F)c4c3F)c(F)c(F)c2c1F` [UOMAH-BF28, 4-Undecyl-N-methyl-N-octadecylanilinium-BF28]: the “activity” value is 366.1 kg/mmol/h and 358.9 kg/mmol/h in data set [6]; 250.9 kg/mmol/h and 186.5 kg/mmol/h in data set [7].
In the case of `CCCCCCCCCCCCCCCCCC[NH+](CCCCCCCCCCCCCCCCCC)c1ccc(C)cc1.Fc1c(F)c(F)c([B-](c2c(F)c(F)c(F)c(F)c2F)(c2c(F)c(F)c(F)c(F)c2F)c2c(F)c(F)c(F)c(F)c2F)c(F)c1F` [DOdTH-BF20, 4-methyl-N,N-dioctadecylbenzenaminium-BF20], the “activity” value is 3716 kg/mmol/h and 3736 kg/mmol/h in data set [1]; 647 kg/mmol/h and 732 kg/mmol/h in data set [2]; 46 kg/mmol/h and 48 kg/mmol/h in data set [4]; 1267 kg/mmol/h and 1154 kg/mmol/h in [5]. Also, in [8], the “Solubility limit in MeCy (wt % at 25° C.)” value turned out to be 19 wt %. In addition, in data set [9] (isohexane), the “Solubility limit in i-hexane (mM at 25° C.)” value is reported as 19 mM. Besides, in [9] (isohexane), the “Solubility limit in i-hexane (wt % at 25° C.)” value is on record as 3.7 wt %. Also, the “Solubility limit in MeCy (mM at 25° C.)” value in data set [9] (methylcyclohexane) came out at 110 mM.
For the compound “Di(hydrogenated tallow)methylamine-BF28 [M2HTH-BF28]”, the “activity” value in data set [1] is 2494 kg/mmol/h and 1709 kg/mmol/h; in data set [2], 825 kg/mmol/h and 863 kg/mmol/h; in data set [3] (Activator Equiv 1.0, TNOAL 0.25 umol, MCN-1 30 nmol, 85° C., propylene 135 psi), 187 kg/mmol/h and 167 kg/mmol/h and 160 kg/mmol/h; in data set [3] (Activator Equiv 1.0, TNOAL 0.50 umol, MCN-1 30 nmol, 85° C., propylene 135 psi) it was 151 kg/mmol/h and 113 kg/mmol/h and 118 kg/mmol/h; in data set [3] (Activator Equiv 1.0, TNOAL 0.75 umol, MCN-1 30 nmol, 85° C., propylene 135 psi), 102 kg/mmol/h and 95 kg/mmol/h; in [3] (Activator Equiv 1.2, TNOAL 0.25 umol, MCN-1 30 nmol, 85° C., propylene 135 psi), 203 kg/mmol/h and 195 kg/mmol/h and 166 kg/mmol/h. Besides, the “activity” value in [3] (Activator Equiv 1.2, TNOAL 0.50 umol, MCN-1 30 nmol, 85° C., propylene 135 psi) was 169 kg/mmol/h and 153 kg/mmol/h; in data set [3] (Activator Equiv 1.2, TNOAL 0.75 umol, MCN-1 30 nmol, 85° C., propylene 135 psi), 119 kg/mmol/h and 104 kg/mmol/h; in [3] (Activator Equiv 1.4, TNOAL 0.25 umol, MCN-1 30 nmol, 85° C., propylene 135 psi) it was 204 kg/mmol/h and 196 kg/mmol/h and 178 kg/mmol/h; in data set [3] (Activator Equiv 1.4, TNOAL 0.50 umol, MCN-1 30 nmol, 85° C., propylene 135 psi), 157 kg/mmol/h and 142 kg/mmol/h; in data set [3] (Activator Equiv 1.4, TNOAL 0.75 umol, MCN-1 30 nmol, 85° C., propylene 135 psi) it was 127 kg/mmol/h and 103 kg/mmol/h; in data set [3] (Activator Equiv 1.6, TNOAL 0.25 umol, MCN-1 30 nmol, 85° C., propylene 135 psi), 229 kg/mmol/h and 203 kg/mmol/h and 180 kg/mmol/h. In addition, the “activity” value in data set [3] (Activator Equiv 1.6, TNOAL 0.50 umol, MCN-1 30 nmol, 85° C., propylene 135 psi) was 168 kg/mmol/h and 144 kg/mmol/h; in data set [3] (Activator Equiv 1.6, TNOAL 0.75 umol, MCN-1 30 nmol, 85° C., propylene 135 psi), 129 kg/mmol/h and 117 kg/mmol/h; in [3] (propylene, 85 °C, 135 psi, MCN-1 = 20 nmol, activator = 20 nmol, TNOAL 500 nmol), 75 kg/mmol/h and 55 kg/mmol/h; in data set [3] (setting [10]), 49 kg/mmol/h and 60 kg/mmol/h and 96 kg/mmol/h; in [4], 48 kg/mmol/h and 65 kg/mmol/h; in [5] it was 620 kg/mmol/h and 352 kg/mmol/h. Also, the “average catalyst activity, comparison of the four activators (FIG. 6)” value in data set [3] (MCN-1, polypropylene at 100° C., Table 7 runs) is “much lower activity”.

These data come from US11414436B2, “Non-coordinating anion type activators containing cation having large alkyl groups” (ExxonMobil Chemical Patents Inc., priority 2018, dated 2022).
